Results taken from ChEMBL document CHEMBL4251579, “Design, synthesis, and biological evaluation of a series of resorcinol-based N-benzyl benzamide derivatives as potent Hsp90 inhibitors” (Eur J Med Chem, 2018).
The source made the active and inactive calls. The calls are words filed in the database; no cut-off is given here.

What was measured:
NCI-H1975 [1] = assay: Antiproliferative activity against human NCI-H1975 cells after 72 hrs by Cell Titer 96 Aqueous One Solution cell proliferation assay; format: functional; conditions: NCI-H1975, 72 h
SK-BR-3 = assay: Antiproliferative activity against human SKBR3 cells after 72 hrs by Cell Titer 96 Aqueous One Solution cell proliferation assay; format: functional
NCI-H1975 [2] = assay: Induction of apoptosis in human NCI-H1975 cells assessed as increase in cleaved caspase-8 expression at 0.05 to 1 uM after 24 hrs by Western blot analysis; format: functional, cell-based
[3] = target: T1, Heat shock protein HSP90 (Homo sapiens) (UniProt P07900+P08238); assay: Inhibition of HSP90 in human NCI-H1975 cells assessed as decrease in c-Raf protein expression at 0.05 to 1 uM after 24 hrs by Western blot analysis; format: cell-based
[4] = target: T1, Heat shock protein HSP90 (Homo sapiens); assay: Inhibition of HSP90 in human NCI-H1975 cells assessed as induction of HSP70 expression at 0.05 to 1 uM after 24 hrs by Western blot analysis; format: cell-based
[5] = target: T1, Heat shock protein HSP90 (Homo sapiens); assay: Inhibition of HSP90 in human NCI-H1975 cells assessed as decrease in Akt protein expression at 0.05 to 1 uM after 24 hrs by Western blot analysis; format: cell-based
Mus musculus [6] = assay: (§1) In vivo inhibition of HSP90 in NOD-scid IL2Rgamma null mouse tumor xenografted with human NCI-H1975 cells assessed as decrease in Met protein expression at 25 to 50 mg/kg, ip dosed daily for 5 days per week followed by 2 days rest for 3 weeks and measured after 21 days post dose by haematoxylin and eosin staining-based immunohistochemical analysis; format: functional, organism-based
Cytochrome P450 2D6 = Cytochrome P450 2D6 (Homo sapiens, UniProt P10635); assay: Inhibition of CYP2D6 in human pooled human liver microsomes using dextromethorphan as substrate assessed as dextromethorphan O-demethylation preincubated for 5 mins followed by NADPH addition measured after 15 mins by LC-MS/MS analysis; format: ADME
[7] = target: T1, Heat shock protein HSP90 (Homo sapiens); assay: Inhibition of HSP90 in human NCI-H1975 cells assessed as decrease in EGFR protein expression at 0.05 to 1 uM after 24 hrs by Western blot analysis; format: cell-based
NCI-H1975 [8] = assay: Induction of apoptosis in human NCI-H1975 cells assessed as increase in Bcl2 expression levels at 0.05 to 1 uM after 24 by Western blot analysis; format: functional, cell-based
[9] = target: T2, Heat shock protein HSP 90-alpha (Homo sapiens, UniProt P07900); assay: Binding affinity to N-terminal domain of recombinant full-length HSP90alpha (unknown origin) by surface plasmon resonance assay
Mus musculus [10] = assay: as §1, with “Akt” for “Met”, “immunoblot” for “haematoxylin and eosin staining-based immunohistochemical”; format: functional, organism-based
NCI-H1975 [11] = assay: Antitumor activity against human NCI-H1975 cells xenografted in NOD-scid IL2Rgamma null mouse assessed as delay in tumor growth at 25 to 50 mg/kg, ip dosed daily for 5 days per week followed by 2 days rest for 3 weeks and measured up to 21 days post dose; format: functional, organism-based
Cytochrome P450 2C19 = Cytochrome P450 2C19 (Homo sapiens, UniProt P33261); assay: Inhibition of CYP2C19 in human pooled human liver microsomes using omeprazole as substrate assessed as omepraozle hydroxylation preincubated for 5 mins followed by NADPH addition measured after 15 mins by LC-MS/MS analysis; format: ADME
NCI-H1975 [12] = assay: Effect on beta-actin protein levels in human NCI-H1975 cells at 0.05 to 1 uM after 24 hrs by Western blot analysis; format: ADME, cell-based; conditions: nci-h1975, 24 h
Mus musculus [13] = assay: as §1, with “immunoblot” for “haematoxylin and eosin staining-based immunohistochemical”; format: functional, organism-based
[14] = target: T1, Heat shock protein HSP90 (Homo sapiens); assay: Inhibition of HSP90 in human NCI-H1975 cells assessed as decrease in Her2 protein expression at 0.05 to 1 uM after 24 hrs by Western blot analysis; format: cell-based
Mus musculus [15] = assay: as §1, with “Akt” for “Met”; format: functional, organism-based
[16] = target: T1, Heat shock protein HSP90 (Homo sapiens); assay: Inhibition of HSP90 in human NCI-H1975 cells assessed as decrease in Met protein expression at 0.05 to 1 uM after 24 hrs by Western blot analysis; format: cell-based
CYP3A = CYP3A (Homo sapiens, UniProt P08684+P20815+P24462+Q9HB55); assay: Inhibition of CYP3A in human pooled human liver microsomes using midazolam as substrate assessed as midazolam 1'-hydroxylation preincubated for 5 mins followed by NADPH addition measured after 15 mins by LC-MS/MS analysis; format: ADME; conditions: probe midazolam
Mus musculus [17] = assay: Toxicity in NOD-scid IL2Rgamma null mouse xenografted with human NCI-H1975 cells assessed as change in body weight at 25 to 50 mg/kg, ip dosed daily for 5 days per week followed by 2 days rest for 3 weeks and measured after 21 days post dose; format: organism-based; conditions: in vivo, 504 h
Mus musculus [18] = assay: as §1, with “EGFR” for “Met”, “immunoblot” for “haematoxylin and eosin staining-based immunohistochemical”; format: functional, organism-based
[19] = target: T1, Heat shock protein HSP90 (Homo sapiens); assay: Inhibition of HSP90 in human NCI-H1975 cells assessed as induction of HSP90 expression at 0.05 to 1 uM after 24 hrs by Western blot analysis; format: cell-based
NCI-H1975 [20] = assay: Induction of apoptosis in human NCI-H1975 cells assessed as increase in Bax expression levels at 0.05 to 1 uM after 24 by Western blot analysis; format: functional, cell-based
Mus musculus [21] = assay: Toxicity in NOD-scid IL2Rgamma null mouse xenografted with human NCI-H1975 cells assessed as induction of abnormal behaviours at 25 to 50 mg/kg, ip measured after 21 days; format: organism-based; conditions: in vivo, 504 h
Cytochrome P450 1A2 = target: T3, Cytochrome P450 1A2 (Homo sapiens, UniProt P05177); assay: Inhibition of CYP1A2 in human pooled human liver microsomes using phenacetin as substrate assessed as […] preincubated for 5 mins followed by NADPH addition measured after 15 mins by LC-MS/MS analysis; format: ADME
T3 sequence (P05177 whole entry): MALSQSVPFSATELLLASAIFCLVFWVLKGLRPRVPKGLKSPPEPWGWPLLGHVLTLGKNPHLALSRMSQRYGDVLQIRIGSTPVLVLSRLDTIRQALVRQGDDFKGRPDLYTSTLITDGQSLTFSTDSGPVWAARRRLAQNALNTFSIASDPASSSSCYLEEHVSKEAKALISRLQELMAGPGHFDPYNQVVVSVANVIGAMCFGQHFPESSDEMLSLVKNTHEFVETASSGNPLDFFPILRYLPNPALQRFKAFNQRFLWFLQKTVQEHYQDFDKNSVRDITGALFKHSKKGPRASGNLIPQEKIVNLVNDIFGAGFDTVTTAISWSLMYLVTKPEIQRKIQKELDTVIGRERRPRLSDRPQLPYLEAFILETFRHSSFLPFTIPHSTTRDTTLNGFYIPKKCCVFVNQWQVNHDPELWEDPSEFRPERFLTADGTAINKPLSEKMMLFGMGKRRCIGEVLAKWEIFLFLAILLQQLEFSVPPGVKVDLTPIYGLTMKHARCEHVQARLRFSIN

NCI-H1975 [22] = assay: Induction of apoptosis in human NCI-H1975 cells assessed as increase in cleaved caspase-3 expression at 0.05 to 1 uM after 24 hrs by Western blot analysis; format: functional, cell-based
[23] = target: T2, Heat shock protein HSP 90-alpha; assay: Inhibition of FITC-geldanamycin binding to N-terminal domain of recombinant full-length HSP90alpha (unknown origin) after 16 hrs by fluorescence polarization assay
NCI-H1975 [24] = assay: Induction of apoptosis in human NCI-H1975 cells assessed as increase in cleaved PARP expression at 0.05 to 1 uM after 24 hrs by Western blot analysis; format: functional, cell-based
Cytochrome P450 2C9 = Cytochrome P450 2C9 (Homo sapiens, UniProt P11712); assay: Inhibition of CYP2C9 in human pooled human liver microsomes using tolbutamide as substrate assessed as tolbutamide 4-methylhydroxylation preincubated for 5 mins followed by NADPH addition measured after 15 mins by LC-MS/MS analysis; format: ADME
Mus musculus [25] = assay: as §1, with “EGFR” for “Met”; format: functional, organism-based

Sequence of Cytochrome P450 2D6 (P10635 whole entry): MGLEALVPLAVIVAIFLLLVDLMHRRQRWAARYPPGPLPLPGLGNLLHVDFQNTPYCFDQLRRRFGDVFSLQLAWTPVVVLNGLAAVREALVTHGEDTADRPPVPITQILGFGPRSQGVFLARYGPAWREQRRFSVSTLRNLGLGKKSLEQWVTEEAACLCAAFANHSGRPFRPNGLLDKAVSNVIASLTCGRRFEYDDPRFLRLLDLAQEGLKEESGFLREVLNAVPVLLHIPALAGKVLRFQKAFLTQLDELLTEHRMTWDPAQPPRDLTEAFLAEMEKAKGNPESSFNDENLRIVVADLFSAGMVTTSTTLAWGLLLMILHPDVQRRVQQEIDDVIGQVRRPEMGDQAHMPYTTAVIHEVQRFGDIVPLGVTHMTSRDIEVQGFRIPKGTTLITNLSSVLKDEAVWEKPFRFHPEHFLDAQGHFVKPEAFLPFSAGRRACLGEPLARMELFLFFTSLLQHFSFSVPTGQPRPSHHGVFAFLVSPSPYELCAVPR
Sequence of Cytochrome P450 2C19 (P33261 whole entry): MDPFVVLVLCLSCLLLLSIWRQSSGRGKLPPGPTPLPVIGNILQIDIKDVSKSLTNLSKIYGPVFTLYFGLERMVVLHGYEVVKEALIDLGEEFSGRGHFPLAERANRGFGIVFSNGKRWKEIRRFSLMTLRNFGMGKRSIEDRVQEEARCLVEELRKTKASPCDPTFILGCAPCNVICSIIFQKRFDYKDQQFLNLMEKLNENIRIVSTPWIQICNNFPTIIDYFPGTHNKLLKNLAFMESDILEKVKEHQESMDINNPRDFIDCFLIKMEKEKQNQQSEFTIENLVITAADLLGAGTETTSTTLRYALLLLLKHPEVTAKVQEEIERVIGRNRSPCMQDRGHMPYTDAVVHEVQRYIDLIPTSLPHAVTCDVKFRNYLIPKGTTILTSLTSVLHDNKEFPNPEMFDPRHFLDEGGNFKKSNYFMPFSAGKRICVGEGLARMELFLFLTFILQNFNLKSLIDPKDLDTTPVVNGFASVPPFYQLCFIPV
Sequence of Cytochrome P450 2C9 (P11712 whole entry): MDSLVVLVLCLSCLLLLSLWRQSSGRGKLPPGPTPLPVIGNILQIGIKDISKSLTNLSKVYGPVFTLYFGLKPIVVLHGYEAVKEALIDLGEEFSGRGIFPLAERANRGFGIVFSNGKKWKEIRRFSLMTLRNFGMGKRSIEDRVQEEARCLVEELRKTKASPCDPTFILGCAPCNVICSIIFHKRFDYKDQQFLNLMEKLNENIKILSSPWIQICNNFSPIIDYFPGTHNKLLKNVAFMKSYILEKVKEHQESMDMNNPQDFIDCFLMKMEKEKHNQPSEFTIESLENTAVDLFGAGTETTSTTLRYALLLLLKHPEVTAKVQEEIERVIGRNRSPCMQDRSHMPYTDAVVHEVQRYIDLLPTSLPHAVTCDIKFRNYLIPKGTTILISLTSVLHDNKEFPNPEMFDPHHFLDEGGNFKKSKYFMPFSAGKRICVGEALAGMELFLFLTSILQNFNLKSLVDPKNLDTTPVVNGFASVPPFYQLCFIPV

## O=C(NCc1ccccc1)c1cc(Cl)c(O)cc1O
NCI-H1975 [1]
  GI50: 86.2 µM
SK-BR-3
  GI50: inactive

## CN(Cc1ccc2c(c1)OCO2)C(=O)c1cc(Cl)c(O)cc1O
NCI-H1975 [1]
  GI50: 103 µM
SK-BR-3; SK-BR-3, 72 h
  GI50: 41.8 µM

## CCCNC(=O)c1ccc(CN(C)C(=O)c2cc(Cl)c(O)cc2O)cc1
NCI-H1975 [1]
  GI50: 20.8 µM

## COC1=C2C[C@@H](C)C[C@H](OC)[C@H](O)[C@@H](C)/C=C(\C)[C@H](OC(N)=O)[C@@H](OC)/C=C\C=C(/C)C(=O)NC(=CC1=O)C2=O [GELDANAMYCIN]
NCI-H1975 [1]
  GI50: 0.56 µM
SK-BR-3
  GI50: inactive

## CCCNC(=O)c1ccc(CN(C)C(=O)c2cc(C(C)C)c(O)cc2O)cc1
NCI-H1975 [2]
  Activity: Active
[3]
  inhibition: Active
[4]
  inhibition: Active
[5]
  inhibition: Active
Mus musculus [6]
  inhibition: Active
Cytochrome P450 2D6
  IC50: 23 µM
[7]
  inhibition: Active
NCI-H1975 [8]
  Activity: inactive
[9]
  Kd: 0.00308 µM
Mus musculus [10]
  inhibition: Active
NCI-H1975 [11]
  Activity: Active
Cytochrome P450 2C19
  IC50: 14.6 µM
NCI-H1975 [12]
  Activity: Non-Toxic
Mus musculus [13]
  inhibition: Active
[14]
  inhibition: Active
Mus musculus [15]
  inhibition: Active
[16]
  inhibition: Active
CYP3A
  IC50 at 15 min: 25.9 µM
Mus musculus [17]
  Activity: Non-Toxic
Mus musculus [18]
  inhibition: Active
[19]
  inhibition: Active
NCI-H1975 [20]
  Activity: inactive
Mus musculus [21]
  Activity: Non-Toxic
Cytochrome P450 1A2
  IC50: 34.1 µM
NCI-H1975 [1]
  GI50: 0.42 µM
NCI-H1975 [22]
  Activity: Active
[23]
  IC50: 0.0053 µM
NCI-H1975 [24]
  Activity: Active
Cytochrome P450 2C9
  IC50: 5.3 µM
Mus musculus [25]
  inhibition: Active

## COc1ccc(CN(C)C(=O)c2cc(Cl)c(O)cc2O)cc1
NCI-H1975 [1]
  GI50: 16.7 µM
SK-BR-3; SK-BR-3, 72 h
  GI50: 7.2 µM

## COc1cc(CN(C)C(=O)c2cc(Cl)c(O)cc2O)cc(OC)c1OC
NCI-H1975 [1]
  GI50: 73.1 µM
[23]
  IC50: > 1 µM
SK-BR-3; SK-BR-3, 72 h
  GI50: 30.1 µM

## CNC(=O)c1ccc(CN(C)C(=O)c2cc(C(C)C)c(O)cc2O)cc1
NCI-H1975 [1]
  GI50: 0.86 µM
[23]
  IC50: 0.0114 µM

## CCNC(=O)c1ccc(CN(C)C(=O)c2cc(Cl)c(O)cc2O)cc1
NCI-H1975 [1]
  GI50: 21.7 µM

## CCNC(=O)c1ccc(CN(C)C(=O)c2cc(C(C)C)c(O)cc2O)cc1
NCI-H1975 [1]
  GI50: 0.46 µM

## Cc1ccccc1CN(C)C(=O)c1cc(Cl)c(O)cc1O
NCI-H1975 [1]
  GI50: 47.5 µM
SK-BR-3; SK-BR-3, 72 h
  GI50: 4.2 µM

## COc1cc(CN(C)C(=O)c2cc(Cl)c(O)cc2O)c(Cl)c(OC)c1OC
NCI-H1975 [1]
  GI50: 33.8 µM
SK-BR-3; SK-BR-3, 72 h
  GI50: 2.4 µM

## CN(Cc1ccccc1)C(=O)c1cc(Cl)c(O)cc1O
NCI-H1975 [1]
  GI50: 35.5 µM
SK-BR-3; SK-BR-3, 72 h
  GI50: 18.3 µM

## COc1cc(CN(C)C(=O)c2cc(Cl)c(O)cc2O)c(Br)c(OC)c1OC
NCI-H1975 [1]
  GI50: 34.3 µM
SK-BR-3; SK-BR-3, 72 h
  GI50: 7.7 µM

## Cc1ccc(CN(C)C(=O)c2cc(Cl)c(O)cc2O)cc1
NCI-H1975 [1]
  GI50: 34.3 µM
SK-BR-3; SK-BR-3, 72 h
  GI50: 7.2 µM

## COc1ccc(CN(C)C(=O)c2cc(Cl)c(O)cc2O)cc1OC
NCI-H1975 [1]
  GI50: 33.4 µM
SK-BR-3; SK-BR-3, 72 h
  GI50: 7.7 µM

## CNC(=O)c1ccc(CN(C)C(=O)c2cc(Cl)c(O)cc2O)cc1
NCI-H1975 [1]
  GI50: 34.8 µM
[23]
  IC50: 0.496 µM

## Cc1cccc(CN(C)C(=O)c2cc(Cl)c(O)cc2O)c1
NCI-H1975 [1]
  GI50: 49.3 µM
SK-BR-3; SK-BR-3, 72 h
  GI50: 11.3 µM
